Like-named read-outs stand apart in the source and are kept apart here.
Key:
[1] = Microdialysis (striatal dialysate and blood) in cynomolgus monkeys; assay type: in vivo, cynomolgus monkey; conditions: cynomolgus monkey, in vivo, po
Description: Monkeys were sedated by intramuscular (i.m.) ketamine administration and cannulated for intravenous (i.v.) administration of propofol infusion (initiated 15–30 min after ketamine administration). Subsequently, the animals were placed in an magnetic resonance imaging (MRI)-compatible stereotaxic frame (Kopf Model 1430), and T1 and T2 weighted scans (for up to 1 h) were carried out with a 7 cm loop-coil in a 3 Tesla Siemens Magnetom TIM Trio (Germany). To derive the coordinates, Digital Imaging and Communications in Medicine (DICOM) files were transformed into Neuroimaging Informatics Technology Initiative (NIFTI) format. NIFTI-compatible images were loaded into 3D viewer software (MRIcro version 1.40 build 1), and the stereotaxic zero in the MRI image was determined using the coordinates of the earbar-tips. Coordinates for placement of the guide cannulas were calculated for every individual animal by use of MRI images and a primate brain map.
On a separate day, microdialysis guide cannulas were placed bilaterally in the head of the caudate nucleus using the same MRI compatible stereotaxic frame (Kopf Model 1430), under isoflurane anesthesia. Prior to surgery, animals were administered ketamine (i.m.), and subsequently anesthetized with isoflurane (0.8%-2% inhalation) while artificially ventilated with O2/N2O (40/60) at 60 to 80 mL tidal volume via an intratracheal tube. During surgery, subcutaneous or i.v. fluids were provided. Animals were allowed to recover from the anesthesia in a warmed environment, single housed, and given at a minimum a 14-day post-surgery recovery time. The following medications were administered to reduce pain and inflammation, as well as reduce the chance of post-operative infection: meloxicam (Metacam 5 mg/mL, 0.2 mg/kg, buprenorphine (Temgesic, 0.3 mg/mL, 0.0038 mg/kg), enrofloxacine (25 mg/mL, 5 mg/kg), and amoxicillin (150 mg/mL, 15 mg/kg).
Samples were stored in -80°C.
From monkeys only, whole blood samples (0.5 mL) were collected from the femoral vein at -1, 0, 1, 2, and 3 h relative to dosing and transferred immediately to chilled polypropylene 15 mL vials containing 2500 μL of 0.15% formic acid in acetonitrile, mixed, and placed on dry ice. After the collections samples were stored at -80°C.
Sample preparation for monkey dialysate and blood samples: Concentrations of fosmetpantotenate (D1 and D2), PA, and PPA in monkey dialysate and blood samples were determined by Brains On-Line LLC. […] For dialysate quantitation, standards and QC samples were prepared in control dialysate (0.2% BSA in aCSF: water: 0.04% ascorbic acid in aqueous 0.02 M formic acid [4.5:24:6 v/v/v]). Standards, QC samples, and dialysate (10 μL) were mixed with 6 μL 20 mM formic acid and 0.01% ascorbic acid in water containing internal standard (10 ng/mL of ^15N/^13C3-PA) and analyzed by LC-MS/MS. Blood standards and QC samples were prepared in supernatant from control monkey blood which had been treated with 5 volumes of 0.15% formic acid in acetonitrile. Endogenous levels >LLOQ were detected for PA in control quenched blood only and quantitated at 56.56 nM based on calibration standard prepared in solvent. To compensate for endogenous PA in the calibration curve control blood, PA standard curve concentrations were spiked plus endogenous levels. Sample work-up of blood involved diluting 10 μL supernatant from study blood samples, standards, and QC samples with 90 μL of 20 mM formic acid and 0.01% ascorbic acid in water, then treating with 4 μL 20 mM formic acid and 0.01% ascorbic acid in water containing internal standard (10 ng/mL of ^15N/^13C3-PA) and analyzing by LC-MS/MS.

[2] = system: porcine brain endothelial cell (PBEC) co-culture model
Description: (§4) Permeability studies were performed after 2 days of co-culture with rat astrocytes. […] In each filter used for transport, a paracellular marker was included as an internal control to monitor the integrity of the cell monolayer. The day of the experiment, culture medium was removed and cells on Transwell inserts were pre-incubated for 30 min with Hank's Balanced Salt Solution (HBSS) containing 20 mM Hepes pH 7.4 and 0.1% bovine serum albumin (BSA). […] Aliquots from the basal compartment were taken after 1 h; fluorescence was measured using a fluorescence detector. The permeability coefficient of the total system was calculated as follows: P[cm/s]=Vd×ΔMr/A×Md×Δt Where:
(§5) To correct for the contribution of the porous polycarbonate membrane of the filter in the absence of cells, the permeability was also determined for the cell-free system. Contribution of the endothelial cell monolayer to the permeability of the cell and filter system was determined by the following equation: 1/Pe=1/Pt-1/Pf Where the total permeability of the system is denoted as Pt, the cell-free filter as Pf, and the endothelial cell layer alone as Pe. The total resistance of the system towards passage of a substance is composed of 2 resistances in series: that of the cell monolayer and that of the filter; permeability is estimated as 1/resistance [27]. […] Mass balance was determined based on the amount of compound recovered in the donor and receiver chamber at the end of the assay relative to the amount added to the donor chamber at time 0.

[3] = male, CD-1, mouse, in vivo
[4] = male, Sprague-Dawley, rat, in vivo
Description: (§6) The whole blood samples (0.5 mL) were collected into syringes that were prefilled with 2.5 mL of ice-cold 0.1% formic acid in acetonitrile. The volume ratio of the whole blood to 0.1% formic acid in acetonitrile was 1/5 (v/v). Samples were frozen (-70°C) until analyzed by LC-MS/MS.
(§7) Standard curves and quality control (QC) samples were prepared fresh on the day of analysis by serial dilution of the standard mixture in quenched whole blood (1 part of blood to 5 parts of 0.1% formic acid in acetonitrile) and centrifuged. […] The frozen study samples were thawed in an ice/water bath and centrifuged. Supernatant (50 μL) from standards, QC samples, and study samples was transferred to a 96-well plate and dried completely under nitrogen. The dried residues were reconstituted with 100 μL of 0.1% formic acid in water containing internal standard (5 ng/mL of ^15N/^13C3-RE-024-02) and analyzed by LC-MS/MS.
(§8) LC-MS/MS analysis for blood pharmacokinetic samples: Samples were analyzed using an Agilent 1100 binary pump (Agilent Technologies, Santa Clara, CA, USA), connected to an AB Sciex API 6500 mass spectrometer (SCIEX, Framingham, MA, USA). An electrospray ionization source was used, scanning in the positive mode. […] The chromatography column was a Varian Metasil AQ 120–5 C18 column, 5 μm, 50 x 2.00 mm (Part No. A0530050X020) at ambient temperature, with a 0.5 mL/min flow rate and a 20 μL injection volume. Mobile phase (A) consisted of 0.1% formic acid in water; while mobile phase (B) consisted of 0.1% formic acid in acetonitrile:water (9:1, v/v).
(§9) Quantitation of in vivo samples: Peak areas were integrated using Analyst software (AB Sciex, Concord, Ontario, Canada). […] Calibration standards (at a minimum 7 per curve) were fit by linear regression with (1/x^2) weighting. QC samples were used (triplicate) at 3 concentrations for all tandem mass spectrometry (MS/MS) runs.
(§10) Pharmacokinetic calculations: PK analysis was performed using Phoenix WinNonlin®, Build 6.3.0.395 (Certara, Princeton, NJ, USA) using a non-compartmental model (PO dose = model 200 for extravascular dosing). […] Post-dose concentrations below the limit of quantitation (BLQ) were omitted from calculation.

[5] = male, C57Bl6, mouse, in vivo, po, 700 mg/kg
Description: (§11) Mice were anesthetized using isoflurane (2%, 800 mL/min O2).
(§12) For oral dosing experiments, MetaQuant microdialysis probes (regenerated cellulose membrane, BrainLink, the Netherlands) were inserted into the striatum (3 mm exposed surface). Coordinates for the tips of the probes for mice were anterior-posterior (AP) = +0.8 mm from bregma, lateral (L) = -1.7 mm from midline, and ventral (V) = -4.0 mm from dura, the toothbar set at 0 mm.
(§13) Microdialysis animal dosing and sample collection: Adult non-fasted male C57Bl6 mice (20–29 g; Harlan Laboratories, Livermore, CA), and Macaca fascicularis (4–9 kg, 3–6 yr old) were used for the experiments. For oral dosing, fosmetpantotenate was formulated as a solution in 20% hydroxypropyl-beta-cyclodextrin in 50 mM citrate buffer in water pH 5.0 and administered using a dose volume of 10 mL/kg. Mice (N = 6 serially sampled) received fosmetpantotenate as a single oral dose at 700 mg/kg and monkeys received a single oral dose at either 100 mg/kg (N = 4 serially sampled) or 300 mg/kg (N = 2 serially sampled).
(§14) Microdialysis: On the morning of the microdialysis experiment, a MetaQuant probe was inserted into the guide shaft targeting the head of the caudate nucleus and perfused at a rate of 0.15 μL/min aCSF containing 0.2% (w/v) BSA, with a carrier flow of 0.8 μL/min of ultrapure water.
(§15) A single 30 min pre-dose basal dialysate sample was collected from mice over -0.5 to 0 h, and three 30 min basal samples from monkeys over -1.5 to 0 h. Fosmetpantotenate was administered at t = 0, and 30 min dialysate samples were collected for an additional 4 h for mice and 3 h for monkeys.
(§16) Sample preparation for mouse dialysate samples: Concentrations of fosmetpantotenate, PA, and PPA in mouse dialysate were determined by Nextcea, Inc, Woburn, MA, using LC-MS/MS. Standard curves and QC samples containing fosmetpantotenate (D1 and D2) and the surrogate analytes for PA and PPA (^15N/^13C3-PA and ^15N/^13C3-PPA) were prepared fresh in 0.1% formic acid in water. Frozen study mouse dialysate samples were thawed in ice/water bath. Standards, QC samples, and thawed study dialysate samples (20 μL) were mixed with 20 μL 0.1% formic acid in water containing internal standard (50 ng/mL of ^15N/^13C3-fosmetpantotenate) and analyzed by LC-MS/MS.
(§17) LC-MS/MS analysis for mouse dialysate samples: Concentrations of fosmetpantotenate, PA, and PPA in dialysate from mice were determined by using LC-MS/MS conditions described for blood PK analysis by Nextcea, except dialysate samples were analyzed using an ACIEX API 5000 and flow rate was increased to 0.6 mL/min.
(§18) Quantitation of in vivo samples: Peak areas were integrated using Analyst software (AB Sciex, Concord, Ontario, Canada). Calibration curves for all blood samples from mouse and rat PK studies and mouse dialysate samples were prepared by plotting the analyte to internal standard (^15N/^13C3-fosmetpantotenate) peak area ratio vs concentration.

in vivo [6] = conditions: male, CD-1, mouse, po
in vivo [7] = conditions: male, Sprague-Dawley, rat, po
Description: as §6, §7, §8, §9, §10

in vivo [8] = conditions: cynomolgus monkey, po, 300 mg/kg
in vivo [9] = conditions: male, C57Bl6, mouse, po, 700 mg/kg
Description: as §11, §12, §13, §14, §15, §16, §17, §18

[10] = Pharmacokinetics in whole blood, CD-1 mice; conditions: male, CD-1, mouse, whole blood, oral, 100 mg/kg, Conc., blood; fosmetpantotenate 100 mg/kg PO; 2 hr; individual animals
[11] = Stability in simulated gastric fluid; assay type: in vitro ADME; conditions: simulated gi fluid, pH 1.2
Description: Stability in simulated gastric fluid: A stock solution of fosmetpantotenate or its individual diastereomers was prepared in 0.1% formic acid in methanol. Simulated gastric fluid, pH 1.2, was prepared with 2 g/L sodium chloride, 3.2 g/L of pepsin, and 0.7% (v/v) HCl. Gastric buffer, pH 1.2, was prepared containing 2 g/L sodium chloride and 0.7% (v/v) HCl. An appropriate aliquot of fosmetpantotenate or individual diastereomers to yield an initial concentration of 10 μM was added to both fluids, and samples were mixed at ~25°C on an orbital shaker. Aliquots (50 μL) were taken at 0, 2, and 4 h; added to 150 μL dimethyl sulfoxide (DMSO) containing an analytical internal standard; vortexed; and analyzed immediately by LC-MS/MS.
(§1) Bioanalysis for determinations of analyte stability: Samples were analyzed using a benchtop tandem quadrupole detector (TQD) mass spectrometer (Waters Ltd, Centennial Park, Hertfordshire). […] Suitable retention and peak shape with separation of the 2 diastereomers were obtained. The chromatography column was a Phenomenex-Kinetex XB C18 (2.10 x 50 mm; 2.6 μm), with a 0.7 mL/min flow rate and a 2 μL injection volume. […] The gradient was initiated with 20% B and increased linearly, reaching 40% B at 0.6 min, followed by 50% B at 0.8 min and by 95% B at 0.9 min. Conditions were kept isocratic through 1.2 min, returned to starting conditions (20% B) at 1.25 min, and maintained at 20% B through 1.5 min before the next injection. Since fosmetpantotenate is a mixture of diastereomers which are resolved chromatographically, the fosmetpantotenate MRM area corresponds to the sum of the MRM areas of the individual diastereomers.
(§2) The percent of compound remaining was determined from the MRM area response in each sample relative to that in the T = 0 samples (normalized for internal standard). Natural log plots of the percent compound remaining over time were used to determine the t½ of compound disappearance using the relationship t½ = -0.693/λ, where λ is the slope of the natural logarithm of the percent compound remaining vs time curve.

[12] = Metabolic stability in mouse whole blood; assay type: in vitro ADME; conditions: mouse, blood
Description: (§3) Metabolic stability in blood and liver microsomes: Fosmetpantotenate or its individual diastereomers (5 μM, n = 2, 37°C) were incubated in mouse, rat, cynomolgus monkey, and human whole blood. Samples (50 μL) were taken at 0, 5, 15, 30, and 60 min. Incubations of fosmetpantotenate or its individual diastereomers (1 μM, n = 2, 37°C) in pooled liver microsomes (0.25 mg protein/mL in 0.1 M phosphate buffer pH 7.4) were initiated with the addition of nicotinamide adenine dinucleotide phosphate (NADPH; 1 mM). Aliquots (100 μL) were obtained at 0, 5, 10, 20, and 40 min and added to 150 μL of 0.1% formic acid in acetonitrile-containing carbamazepine (0.5 μM) as an analytical internal standard, centrifuged, and the supernatants analyzed by LC-MS/MS.
as §1, §2

[13] = Metabolic stability in rat whole blood; assay type: in vitro ADME; conditions: rat, blood
Description: as §3, §1, §2

[14] = Metabolic stability in monkey whole blood; assay type: in vitro ADME, cynomolgus monkey; conditions: monkey, blood
Description: as §3, with “Samples (50 μL) were taken at 0, 5, 15, 30, and 60 min.” left out
as §1, §2

[15] = Metabolic stability in human whole blood; assay type: in vitro ADME; conditions: human, blood
Description: as §3, §1, §2

[16] = Microdialysis (brain striatal dialysate) in C57Bl6 mice; conditions: striatal dialysate; oral dose at 700 mg/kg; all samples; 700 mg/kg
Description: as §11, §12, §13, §14, §15, §16, §17, §18

[17] = PA Concentration in Mouse Striatal Dialysate (Corrected for Dilution)
[18] = PA Concentration in Mouse Striatal Dialysate (Corrected for Dilution), Mean

Description for in vitro: as §4, §5

CC(C)(CO)[C@@H](O)C(=O)NCCC(=O)O [PA, pantothenate]
AUC ([1]; 300 mg/kg): 2.17 µM·h
Cmax ([1]; 300 mg/kg): 1300 nM
AUC ([1]; cynomolgus, 100 mg/kg): 0.467 ± 0.152 µM·h
Cmax ([1]; cynomolgus, 100 mg/kg): 255 ± 70 nM
AUC ([1]; cynomolgus, 300 mg/kg): 9.34 µM·h
Cmax ([1]; cynomolgus, 300 mg/kg): 4270 nM
blood-brain barrier permeability classification [2]: permeable
fold increase in AUC as dose increased from 100 to 700 mg/kg [3]: 3.1 fold
fold increase in Cmax as dose increased from 100 to 700 mg/kg [3]: 2.4 fold
fold increase in AUC as dose increased from 100 to 700 mg/kg [4]: 4.6 fold
fold increase in Cmax as dose increased from 100 to 700 mg/kg [4]: 5.9 fold
PA Concentration in Mouse Striatal Dialysate (Corrected for Dilution), Mean ([5]; 1.5 h): 61.5 nM
PA Concentration in Mouse Striatal Dialysate (Corrected for Dilution), Mean ([5]; 2 h): 80.7 nM
PA Concentration in Mouse Striatal Dialysate (Corrected for Dilution), Mean ([5]; 2.5 h): 87.6 nM
PA Concentration in Mouse Striatal Dialysate (Corrected for Dilution), Mean ([5]; 3 h): 95.3 nM
AUC (in vivo [6]; 100 mg/kg): 3.4 µM·h
Cmax (in vivo [6]; 100 mg/kg): 683 nM
AUC (in vivo [6]; 300 mg/kg): 5.76 µM·h
Cmax (in vivo [6]; 300 mg/kg): 771 nM
AUC (in vivo [6]; 700 mg/kg): 10.5 µM·h
Cmax (in vivo [6]; 700 mg/kg): 1610 nM
AUC (in vivo [7]; 100 mg/kg): 8.68 µM·h
Cmax (in vivo [7]; 100 mg/kg): 1340 nM
AUC (in vivo [7]; 300 mg/kg): 32.5 µM·h
Cmax (in vivo [7]; 300 mg/kg): 4750 nM
AUC (in vivo [7]; 700 mg/kg): 40.1 µM·h
Cmax (in vivo [7]; 700 mg/kg): 7900 nM
AUC (in vivo [8]): 3.35 µM·h
Cmax (in vivo [8]): 589 nM
AUC (in vivo [9]): 0.154 ± 0.105 µM·h
Cmax (in vivo [9]; PA Cmax): 88 ± 74.3 nM
concentration at 0 h (in vivo [9]; [17]): 52.8 nM
concentration at 0.5 h (in vivo [9]; [17]): 65.1 nM
concentration at 1 h (in vivo [9]; [17]): 77.7 nM
concentration at 0 h (in vivo [9]; [18]): 50.7 nM
concentration at 0.5 h (in vivo [9]; [18]): 57.7 nM
concentration at 1 h (in vivo [9]; [18]): 75.6 nM
concentration at 3.5 h (in vivo [9]; [18]): 115 nM
concentration at 4 h (in vivo [9]; [18]): 128 nM
Cmax (in vivo [9]; total PA Cmax): 130 nM
Papp at 1 h (in vitro; pH 7.4, In Vitro Measured Papp): 4.2 ± 1.3 ×10⁻⁶ cm/s
Papp at 60 min (in vitro; pig, pH 7.4, Papp): 5.6 ×10⁻⁶ cm/s
concentration at 2 h [10]: 282 nM

COC(=O)CCNC(=O)[C@H](O)C(C)(C)COP(=O)(N[C@@H](C)C(=O)OC)Oc1ccccc1 (single isomer, unassigned) [Compound D1]
half-life (t½) in simulated gastric fluid [11]: > 600 min
Mean half-life [12]: <5 min
Percentage Remaining ([12]; 0 h): 100%
Percentage Remaining ([12]; 5 min): 0%
Percentage Remaining ([12]; 0.25 h): 0%
Mean half-life [13]: <5 min
Percentage Remaining ([13]; 0 h): 100%
Percentage Remaining ([13]; 0.5 h): 0%
Mean half-life [14]: 35 min
Percentage Remaining ([14]; 0 h): 100%
Percentage Remaining ([14]; 5 min): 88%
Mean half-life [15]: 44 min
Percentage Remaining ([15]; 0 h): 100%
In Vitro Measured Papp [2]: 4.8 ± 1.8 10^−6 cm/s
Dialysate Conc [16]: < 4.72 nM

Source: article PMC5844530, “Fosmetpantotenate (RE-024), a phosphopantothenate replacement therapy for pantothenate kinase-associated neurodegeneration: Mechanism of action and efficacy in nonclinical models” (PLoS ONE, 2018)
